{"source": "patent US6706767B2", "about": "“Therapeutics for chemokine mediated diseases” (Chemokine Therapeutics Corporation, priority 2000, dated 2004)", "key": {"[1]": {"target": "MCP-1 receptor (CCR-2) (Homo sapiens, UniProt P41597)", "sequence (P41597 whole entry, species assumed)": "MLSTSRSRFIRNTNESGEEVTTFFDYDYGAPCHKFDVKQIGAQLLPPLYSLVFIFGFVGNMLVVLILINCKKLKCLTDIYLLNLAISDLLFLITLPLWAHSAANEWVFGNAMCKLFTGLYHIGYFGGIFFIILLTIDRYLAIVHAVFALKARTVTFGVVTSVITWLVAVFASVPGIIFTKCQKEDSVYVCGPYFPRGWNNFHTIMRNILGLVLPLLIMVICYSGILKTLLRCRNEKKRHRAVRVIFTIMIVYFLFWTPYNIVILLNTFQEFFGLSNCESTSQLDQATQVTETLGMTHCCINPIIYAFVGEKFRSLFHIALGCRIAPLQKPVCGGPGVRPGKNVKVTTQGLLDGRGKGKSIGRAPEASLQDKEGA", "assay": "Inhibition of I125-labeled MCP-1 binding to the MCP-1 receptor (CCR-2)", "settings": "I125 labeled MCP-1 as competitor; FIG. 1", "protocol": "A dose response of phenanthrene-9,10-dione at different concentration in comparison to MCP-1.\nThis example discloses the ability of tricyclic compounds of the invention, such as phenanthrene-9,10-dione (compound 1), for inhibiting binding to the MCP-1 receptor (CCR-2). The binding studies were conducted using I^125 labeled MCP-1 as competitor. […] In FIG. 1, the results of competition studies are plotted using a standard scatchard plot analysis."}, "[2]": {"target": "T1, CXCR1 (Homo sapiens, UniProt P25024)", "T1 sequence (P25024 1-350)": "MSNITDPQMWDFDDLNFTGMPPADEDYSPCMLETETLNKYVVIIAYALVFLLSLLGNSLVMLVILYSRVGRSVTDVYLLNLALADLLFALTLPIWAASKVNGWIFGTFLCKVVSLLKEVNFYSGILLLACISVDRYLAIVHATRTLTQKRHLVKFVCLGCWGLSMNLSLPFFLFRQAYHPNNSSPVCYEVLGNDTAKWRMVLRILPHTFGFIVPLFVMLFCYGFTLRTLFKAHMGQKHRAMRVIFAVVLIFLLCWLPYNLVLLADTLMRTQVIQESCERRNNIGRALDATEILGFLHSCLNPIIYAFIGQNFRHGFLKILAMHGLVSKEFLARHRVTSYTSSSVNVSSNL", "assay": "Inhibition of IL-8 binding to CXCR1", "settings": "FIG. 8"}, "[3]": {"target": "T2, CXCR2 (Homo sapiens, UniProt P25025)", "T2 sequence (P25025 1-360)": "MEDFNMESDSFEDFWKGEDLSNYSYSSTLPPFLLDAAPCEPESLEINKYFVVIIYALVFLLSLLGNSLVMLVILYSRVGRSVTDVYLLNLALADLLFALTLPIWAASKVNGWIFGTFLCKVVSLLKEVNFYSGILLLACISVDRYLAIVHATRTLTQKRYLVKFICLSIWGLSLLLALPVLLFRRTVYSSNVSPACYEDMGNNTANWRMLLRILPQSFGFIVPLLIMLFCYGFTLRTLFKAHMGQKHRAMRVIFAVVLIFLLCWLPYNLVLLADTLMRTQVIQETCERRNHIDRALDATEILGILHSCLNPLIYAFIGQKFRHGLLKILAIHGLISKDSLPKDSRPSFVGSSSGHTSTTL", "assay": "Inhibition of IL-8 binding to CXCR2", "settings": "FIG. 8"}, "[4]": {"system": "THP-1 cells", "assay": "Inhibition of MCP-1 induced [Ca2+]i mobilization in Fura-2,AM loaded THP-1 cells", "format": "cell-based", "settings": "Homo sapiens, 0.5 h, 30 min incubation", "protocol": "(§1) Fura-2,AM loaded THP-1 cells were incubated with M163 for 30 min prior to induction of [Ca^2+]i mobilization by 20 nM MCP-1. Cells were also evaluated in the presence of fMLP (1 mM)/cytochalasin B (0.5 mM) or M163 (600 ng/ml) as positive and negative controls respectively. […] The values represent the mean +/− one S.D."}, "[5]": {"system": "THP-1 cells and T-cells", "assay": "Cytoplasmic calcium rise induced by the compound itself", "format": "cell-based", "settings": "analogous to native MCP-1", "protocol": "as §1"}, "[6]": {"system": "human neutrophils", "assay": "Inhibition of IL-8 induced [Ca2+]i mobilization in human neutrophils", "format": "cell-based", "settings": "30 minutes incubation, 10 nM IL-8", "protocol": "Freshly isolated neutrophils loaded with Fura-2,AM were incubated with phenanthrene-9,10-dione for 30 minutes prior to induction of [Ca^2+]i mobilization by 10 nM IL-8. Values represent the increase in mobilization over basal levels (wavelength averaging at approximately 176 nM) and are the mean +/− one S.D. of n=3 experiments."}, "[7]": {"system": "EAE mouse model", "assay": "EAE mouse model of Multiple Sclerosis, clinical scores", "format": "in vivo", "settings": "1 mg/kg/day for 14 days, compared to control saline injection", "description": "Experimental autoimmune encephalomyelitis (EAE) is a CD4^+ Th1-mediated inflammatory demyelinating disease of the central nervous system (CNS) that serves as a model for multiple sclerosis. It has previously been disclosed that monocyte chemotactic protein-one (MCP-1) regulates acute and relapsing autoimmune encephalomyelitis, and that MCP-1 production in the central nervous system is correlated with relapsing EAE development. In this example, the EAE mouse model for MS is used, in which the disease is induced with Bordetella pertussis toxin (Claude C. A. et. al., (1975) Journal of Immunology 114(5): 1537-1540 and Hosseimi, H. et. al., (2000) Neurology 54 (7): A166, An abstract presented in April 2000 on “Inhibition of proteosome prevents clinical signs in an experimental model of Multiple Sclerosis”). A dose of 1 mg/kg/day in a volume of 100 μl saline was given to animals for 14 days, and individual animals were observed daily and graded accordingly to their clinical severity as follows: grade 0, no abnormality; grade 1, limp tail; grade 2, limp tail and partial hind limb weakness; grade 3, complete hind limb paralysis; grade 4, complete hind limb paralysis and fore limb weakness; grade 5, death."}, "[8]": {"system": "neutrophils", "assay": "CPPD crystal induced neutrophil activation (chemiluminescence)", "format": "cell-based", "settings": "0.3 μg/ml and 1 μg/ml", "description": "(§2) In accordance with this aspect of the invention, tricyclic comounds such as phenanthrene-9,10-dione or corresponding salts may be used for the treatment of inflammatory diseases related to gout and arthritis."}, "[9]": {"system": "neutrophils", "assay": "fMLP induced neutrophil activation (chemiluminescence)", "format": "cell-based", "settings": "0.3 μg/ml and 1 μg/ml", "description": "as §2"}, "[10]": {"system": "neutrophils", "assay": "fMLP induced neutrophil calcium level", "format": "cell-based", "settings": "FIG. 6, after 15 seconds stimulation"}}, "note": "Where two headings read alike, the source gives them in different places."}
{"smiles": "O=C1C(=O)c2ccccc2-c2ccccc21", "note": "[phenanthrene-9,10-dione]", "values": [{"measurement": "inhibitory effect on the binding of MCP-1 to CCR-2", "setting": "[1]", "result": "inhibitory effect"}, {"measurement": "inhibitory effect on the binding of IL-8 to CXCR1", "setting": "[2]", "result": "inhibitory effect"}, {"measurement": "inhibitory effect on the binding of IL-8 to CXCR2", "setting": "[3]", "result": "inhibitory effect"}, {"measurement": "IC50", "setting": "[4]; 20 nM MCP-1, read-out: IC50, MCP-1 associated induction of [Ca2+]i mobilization", "result": 0.25, "unit": "µg/mL"}, {"measurement": "IC50", "setting": "[4]; 20 nM MCP-1, value in parentheses, read-out: IC50, MCP-1 associated induction of [Ca2+]i mobilization", "result": 120, "unit": "nM"}, {"measurement": "effect on cytoplasmic calcium concentration", "setting": "[5]", "result": "induced a rapid, transient rise in cytoplasmic calcium concentration"}, {"measurement": "suppression of calcium level (IL-8 induced [Ca2+]i mobilization)", "setting": "[6]; 3 μM", "result": "about 63%"}, {"measurement": "IC50", "setting": "[6]; Neutrophil, 0.5 h", "result": 3000, "unit": "nM"}, {"measurement": "effect on clinical scores", "setting": "[7]", "result": "beneficial effect on the clinical scores"}, {"measurement": "inhibition of CPPD crystal induced neutrophil activation", "setting": "[8]", "result": "strong inhibition"}, {"measurement": "inhibition of fMLP induced neutrophil activation", "setting": "[9]", "result": "strong inhibition"}, {"measurement": "inhibition of intracellular calcium ion release", "setting": "[10]", "result": "effective inhibitor of intracellular calcium ion release"}]}
